Data reported in paper PMC10584170, “Machine learning-based phenotypic imaging to characterise the targetable biology of Plasmodium falciparum male gametocytes for the development of transmission-blocking antimalarials” (PLOS Pathogens, 2023).
pIC50: −log10 of the molar value. Where two headings read alike, the source gives them in different places.

Key:
[1] = test system: P. falciparum male gametocytes; assay: P. falciparum Dual Gamete Formation Assay (PfDGFA), male readout (exflagellation); assay type: cell-based, Plasmodium falciparum NF54; settings: for HitlevelM: number of replicates with >50% inhibition in the male readout; for Selectivity Ratio M: HepG2 Tox50 versus male IC50
Outline: (§1)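 Two sex-specific readouts come from one well: male exflagellation centres recorded by brightfield video right after activation, and female gametes scored by Cy3-anti-Pfs25 fluorescence after 24 h at 28°C.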

[2] = test system: P. falciparum female gametocytes; assay: P. falciparum Dual Gamete Formation Assay (PfDGFA), female readout (Pfs25-positive female gametes); assay type: cell-based, Plasmodium falciparum NF54; settings: for HitlevelF: number of replicates with >50% inhibition in the female readout; for Selectivity ratio F: HepG2 Tox50 versus female IC50
Outline: as §1

[3] = test system: HepG2 cells; assay: HepG2 cytotoxicity counter-screen; settings: for Tox50: cytotoxic activity against HepG2 cells
[4] = 2µM, 24h preincubation with gametocytes prior to induction of gametogenesis, average of replicates
[5] = 2µM, 24h preincubation with gametocytes prior to induction of gametogenesis, replicate R1
[6] = 2µM, 24h preincubation with gametocytes prior to induction of gametogenesis, replicate R3
[7] = 2µM, 24h preincubation with gametocytes prior to induction of gametogenesis, replicate R4
[8] = PfDGFA, 24 h incubation with gametocytes before induction, exflagellation readout, read-out: Male IC50
[9] = PfDGFA, 24 h incubation with gametocytes before induction, female gamete readout, read-out: Female IC50
[10] = Plasmodium falciparum, 2µM, 24h preincubation with gametocytes, average of replicates, read-out: Average inhibition male (%)
[11] = Plasmodium falciparum, 2µM, 24h preincubation with gametocytes, replicate R1, read-out: % inhibition male (individual replicates) R1
[12] = Plasmodium falciparum, 2µM, 24h preincubation with gametocytes, replicate R2, read-out: % inhibition male (individual replicates) R2
[13] = Plasmodium falciparum, 2µM, 24h preincubation with gametocytes, replicate R3, read-out: % inhibition male (individual replicates) R3
[14] = Plasmodium falciparum, 2µM, 24h preincubation with gametocytes, replicate R4, read-out: % inhibition male (individual replicates) R4
[15] = Plasmodium falciparum, PfDGFA, 24 h incubation with gametocytes before induction, exflagellation readout, read-out: Male IC50
[16] = Plasmodium falciparum, 2µM, 24h preincubation with gametocytes, average of replicates, read-out: Average inhibition female (%)
[17] = Plasmodium falciparum, 2µM, 24h preincubation with gametocytes, replicate R1, read-out: % inhibition female (individual replicates) R1
[18] = Plasmodium falciparum, 2µM, 24h preincubation with gametocytes, replicate R2, read-out: % inhibition female (individual replicates) R2
[19] = Plasmodium falciparum, 2µM, 24h preincubation with gametocytes, replicate R3, read-out: % inhibition female (individual replicates) R3
[20] = Plasmodium falciparum, 2µM, 24h preincubation with gametocytes, replicate R4, read-out: % inhibition female (individual replicates) R4
[21] = Plasmodium falciparum, PfDGFA, 24 h incubation with gametocytes before induction, female gamete readout, read-out: Female IC50
[22] = PfDGFA at 2µM, 24h preincubation with gametocytes, average of replicates
[23] = PfDGFA at 2µM, 24h preincubation with gametocytes, replicate R1
[24] = PfDGFA at 2µM, 24h preincubation with gametocytes, replicate R3
[25] = PfDGFA at 2µM, 24h preincubation with gametocytes, replicate R4
[26] = 2µM, 24h preincubation with gametocytes, average of replicates
[27] = 2µM, 24h preincubation with gametocytes, replicate R1
[28] = 2µM, 24h preincubation with gametocytes, replicate R3
[29] = 2µM, 24h preincubation with gametocytes, replicate R4

Compound	Selectivity Ratio M [1]	pIC50 [1, 8]	Selectivity ratio F [2]	pIC50 [2, 9]	Tox50 [3]	inhibition at 2 µM [1, 10]	inhibition at 2 µM [1, 11]	inhibition at 2 µM [1, 12]	inhibition at 2 µM [1, 13]	inhibition at 2 µM [1, 14]	pIC50 [1, 15]	inhibition at 2 µM [2, 16]	inhibition at 2 µM [2, 17]	inhibition at 2 µM [2, 18]	inhibition at 2 µM [2, 19]	inhibition at 2 µM [2, 20]	pIC50 [2, 21]	further results
Cl.c1ccc2c(NCCCCCCCCCNc3c4ccccc4nc4ccccc34)c3ccccc3nc2c1 [TCMDC-124286]	3.22	5.71	1.31	5.32	6.29 µM	–	–	–	–	–	–	–	–	–	–	–	–	Average inhibition male (%) [1, 4]: 61.5%; % inhibition male (individual replicates) R1 [1, 5]: 79.2%; % inhibition male (individual replicates) R3 [1, 6]: 1.0%; % inhibition male (individual replicates) R4 [1, 7]: 84.9%; HitlevelM ([1]; 2µM, 24h preincubation): 3; Average inhibition female (%) [2, 4]: 43.1%; % inhibition female (individual replicates) R1 [2, 5]: 36.0%; % inhibition female (individual replicates) R3 [2, 6]: 18.9%; % inhibition female (individual replicates) R4 [2, 7]: 71.3%; HitlevelF ([2]; 2µM, 24h preincubation): 1
COc1ccc2nc(N=C3NC4(c5ccccc5)NC(=Nc5nc6ccc(OC)cc6[nH]5)NC4(c4ccccc4)N3)[nH]c2c1.O=C(O)C(F)(F)F (stereo not shown) [TCMDC-139632]	29.01	–	5.74	–	33.52 µM	94.4%	95.5%	96.3%	95.1%	90.9%	5.94	18.9%	23.3%	24.8%	10.6%	17.1%	5.23	–
Cc1cc(Nc2ncc(C#N)c(Nc3ccccc3C(N)=O)n2)ccc1N1CCN(C)CC1.Cl [TCMDC-134115]	28.49	–	0.14	–	1.03 µM	96.2%	97.3%	97.1%	88.6%	102%	7.40	-14.3%	-7.3%	-13.1%	-26.9%	-10%	5.13	–
COc1cc2nc(NCc3cccc(CNC(=O)c4ccc(-c5ccc(C(C)=O)cc5)cc4)c3)nc(N)c2cc1OC.O=C(O)C(F)(F)F [TCMDC-138177]	3.88	5.79	3.13	5.69	6.34 µM	–	–	–	–	–	–	–	–	–	–	–	–	Average inhibition male (%) [1, 22]: 65.2%; % inhibition male (individual replicates) R1 [1, 23]: 54.7%; % inhibition male (individual replicates) R3 [1, 24]: 22.4%; % inhibition male (individual replicates) R4 [1, 25]: 95.6%; HitlevelM ([1]; 2µM): 3; Average inhibition female (%) [2, 22]: 43.1%; % inhibition female (individual replicates) R1 [2, 23]: 31.2%; % inhibition female (individual replicates) R3 [2, 24]: 17.8%; % inhibition female (individual replicates) R4 [2, 25]: 57.2%; HitlevelF ([2]; 2µM): 2
O=C(O)CCSSc1cccc[n+]1[O-] [TCMDC-141973]	128.35	–	117.36	–	30.9 µM	97.3%	98.9%	96.8%	100%	92.9%	6.62	42.8%	28.9%	62.6%	43.7%	35.9%	6.59	–
CNCCNCc1ccc(-c2ccc(-c3nc4cccc(C)c4[nH]3)cc2)cc1.O=C(O)C(F)(F)F [TCMDC-132837]	7.9	5.78	1.52	5.06	13.18 µM	–	–	–	–	–	–	–	–	–	–	–	–	Average inhibition male (%) [1, 22]: 81.2%; % inhibition male (individual replicates) R1 [1, 23]: 79.2%; % inhibition male (individual replicates) R3 [1, 24]: 67.7%; % inhibition male (individual replicates) R4 [1, 25]: 94.2%; HitlevelM ([1]; 2µM): 4; Average inhibition female (%) [2, 22]: 30.6%; % inhibition female (individual replicates) R1 [2, 23]: 20.0%; % inhibition female (individual replicates) R3 [2, 24]: 47.7%; % inhibition female (individual replicates) R4 [2, 25]: 20.5%; HitlevelF ([2]; 2µM): 0
COCCn1c(Sc2ncnc3sccc23)nc2ccccc21 [TC65]	–	–	–	–	–	–	–	–	–	–	–	–	–	–	–	–	–	Cytotox ratio Pf Male [1]: 81.3; pIC50 ([1]; this study, read-out: Pf DGFA IC50 MALE): 5.91; Cytotox ratio Pf Female [2]: 94.3; pIC50 ([2]; this study, read-out: Pf DGFA IC50 FEM): 5.97; DGFA Tox50 HepG2 ([3]; HepG2 value reported with the DGFA screen): 100 µM; Mean TOX ([3]; mean of the HepG2 TOX50 values): 100.00 µM
Cc1ccc(C(C(=O)Nc2ccc(N3CCNCC3)c(Cl)c2)c2ccccc2)cc1 (stereo not shown) [TCMDC-134292]	27.18	–	1.13	–	11.32 µM	93.6%	96.8%	85.1%	98.4%	94.1%	6.38	61.9%	54.2%	48.2%	79.2%	66%	< 5.00	–
CCOCn1c(-c2ccccc2)cc2c3c(N)nc(N)nc3ccc21 [TCMDC-137979]	0.71	5.78	1.17	6.00	1.17 µM	–	–	–	–	–	–	–	–	–	–	–	–	Average inhibition male (%) [1, 4]: 42.1%; % inhibition male (individual replicates) R1 [1, 5]: 55.5%; % inhibition male (individual replicates) R3 [1, 6]: 46.9%; % inhibition male (individual replicates) R4 [1, 7]: 49.0%; HitlevelM ([1]; 2µM, 24h preincubation): 1; Average inhibition female (%) [2, 4]: 82.0%; % inhibition female (individual replicates) R1 [2, 5]: 76.5%; % inhibition female (individual replicates) R3 [2, 6]: 82.3%; % inhibition female (individual replicates) R4 [2, 7]: 83.9%; HitlevelF ([2]; 2µM, 24h preincubation): 4
CCCCCCCCN1CCN(CCCCCCNc2c3ccccc3nc3ccccc23)CC1.Cl [TCMDC-138015]	2.34	5.75	2.15	5.72	4.12 µM	–	–	–	–	–	–	–	–	–	–	–	–	Average inhibition male (%) [1, 22]: 63.5%; % inhibition male (individual replicates) R1 [1, 23]: 58.8%; % inhibition male (individual replicates) R3 [1, 24]: 66.4%; % inhibition male (individual replicates) R4 [1, 25]: 81.8%; HitlevelM ([1]; 2µM): 3; Average inhibition female (%) [2, 22]: 83.0%; % inhibition female (individual replicates) R1 [2, 23]: 79.8%; % inhibition female (individual replicates) R3 [2, 24]: 90.0%; % inhibition female (individual replicates) R4 [2, 25]: 82.3%; HitlevelF ([2]; 2µM): 4
CS(=O)(=O)O.FC(F)(F)COc1ccc(CNCCCCCCNCc2ccc(OCC(F)(F)F)c3ccccc23)c2ccccc12 [TCMDC-137853]	4.06	6.51	2.44	6.28	1.26 µM	–	–	–	–	–	–	–	–	–	–	–	–	Average inhibition male (%) [1, 26]: 98.2%; % inhibition male (individual replicates) R1 [1, 27]: 97.9%; % inhibition male (individual replicates) R3 [1, 28]: 96.8%; % inhibition male (individual replicates) R4 [1, 29]: 101.6%; Average inhibition female (%) [2, 26]: 50.4%; % inhibition female (individual replicates) R1 [2, 27]: 38.4%; % inhibition female (individual replicates) R3 [2, 28]: 35.3%; % inhibition female (individual replicates) R4 [2, 29]: 42.3%
CCS(=O)(=O)Nc1ccc2c(c1)/C(=C(/Nc1ccc(CN3CCCCC3)cc1)c1ccccc1)C(=O)N2 [TCMDC-135395]	46.97	–	0.06	–	0.56 µM	91.1%	87%	89.8%	92.4%	95.2%	8.00	-5.9%	-6.3%	-3.4%	1.2%	-15.3%	< 5.00	–
